“And” between values parts separate entries of the source, which are not always exact repeats. Identical values can stand only once. Like-named read-outs stand apart in the source and are kept apart here.
Tests used:
[1] = Circular dichroism spectroscopy; assay type: physicochemical; details: PBS, pH 7.0, 25° C., C34-GCN4 with about 0.7 M guanidine hydrochloride
Experimental: The guanidine hydrochloride used to solubilize C34-GCN4 absorbs light at wavelengths below 210 nm. Experimental conditions were PBS, pH 7.0, 25° C.
CD spectra were measured on an Aviv 60DS spectrapolarimeter at 25° C. in phosphate buffered saline (PBS; 10 mM sodium phosphate, 150 mM NaCl, pH 7.0). […] Guanidine concentrations were measured by refractometry.

[2] = tested on: HIV-1 envelope mediated fusion of CHO gp160 cells with CD4 HeLa cells
Experimental: The peptides were tested for inhibiting the fusion of HIV-1 Env expressing cells (CHO gp 160) with CD4expressing cells (CD4 HeLa) (D. C. Chan, et al., Proc. Natl. Acad. Sci., 95:15613-15617 (1998)).
(§1) Assessment of viral infectivity and syncytia formation were carried out as described by Eckert et al., Cell, 99:103-115 (1999). In both inhibition assays, peptide stocks were dissolved in dimethylsulfoxide and their concentrations determined by absorbance in guanidine at 280 nm. The final concentration of dimethylsulfoxide in tissue culture media was 1% in all experiments. Inhibition of cell-cell fusion (syncytia formation) (G. J. Nabel, Nature 410, 1002-1007 (2001); D. C. Chan, C. T. Chutkowski, P. S. Kim, Proc. Natl. Acad. Sci. 95, 15613-15617 (1998)) was assayed by co-culturing 3×10^4 Chinese hamster ovary (CHO) cells expressing HXB2 envelope and tat and rev with 5×10^4 HeLa cells expressing CD4 and LTR-driven β-galactosidase in the presence of varying concentrations of peptides. The CHO and HeLa cells were incubated in the presence of peptides for 20 hours, and stained with 5-bromo-4-chloro-3-indolyl-β-D-galactoside (X-gal) to detect the syncytia, which were visualized by microscopy and counted manually. In the viral infectivity assay, the ability of the peptides to inhibit HIV-1 infection was assayed using a recombinant luciferase-encoding HIV-1 (G. J. Nabel, Nature 410, 1002-1007 (2001); D. C. Chan, C. T. Chutkowski, P. S. Kim, Proc. Natl. Acad. Sci. 95, 15613-15617 (1998)). 293T cells were co-transfected with an envelope-deficient HIV-1 genome with a luciferase gene (NL43LucR-E-) [B. K. Chen, K. Saksela, R. Andino, D. Baltimore, J. Virol. 68, 654-660 (1994)] and the HXB2 gp160 expression vector (pCMVHXB2 gpl60). Low-speed centrifugation was used to clear the viral supernatants of cellular debris. The supernatant containing the viruses was used to infect HOS cells expressing CD4 and CXCR4 (HOS-CD4/Fusin cells, N. Landau, National Institutes of Health AIDS Reagent Program) in the presence of varying concentrations of peptides. The HOS cells were harvested 48 hours post-infection, and luciferase activity was monitored using a Wallac AutoLumat LB953 luminometer. In both assays, the IC50, the concentration needed to inhibit 50% of cell-cell fusion events or luciferase activity, was calculated from fitting the data to the equation, y=k/(1+[peptide]/IC50), where y=number of syncytia or luciferase activity and k is a scaling constant.
To test how well the HIV-1-neutralizing epitope was recapitulated, two assays were used to measure the potency of the designed peptides in inhibiting HIV-1 envelope-mediated membrane fusion. The biological activity of the designed peptides were first measured by their ability to inhibit fusion of HeLa cells expressing CD4 and chemokine receptors and CHO expressing HIV envelope protein (D. C. Chan, C. T. Chutkowski, P. S. Kim, Proc. Natl. Acad. Sci. 95: 15613-15617 (1998)).

[3] = tested on: recombinant luciferase-expressing HIV-1 infecting HOS-CD4/Fusin cells
Experimental: The peptides were tested for inhibition of CD4 positive target cells (HOST4) by recombinant, luciferase-expressing HIV-1 (D. C. Chan, C. T. Chutkowski, P. S. Kim, Proc. Natl. Acad. Sci. 95, 15613-15617 (1998)).
as §1
In a second assay, the ability of the peptides to inhibit HIV infection of HOS cells expressing CD4 and CXCR4 was measured, using a luciferase-based reporter assay (D. C. Chan, C. T. Chutkowski, P. S. Kim, Proc. Natl. Acad. Sci. 95: 15613-15617 (1998); Chen, B. K., et al.,J. Virol., 68(2):[…] (1994)).

[4] = biological target: HIV-1 gp41 envelope glycoprotein (HXB2 envelope) (HIV-1 (HXB2)) (UniProt P04578); assay: cell-based or functional assay
[5] = tested on: HIV-1 envelope mediated fusion of CHO gp160 cells with CD4 HeLa cells; details: C34 data taken from Chan et al., PNAS 95:15613 (1998); read-out: Cell-Cell Fusion Assay (IC50 in nM); cited from earlier work
[6] = tested on: recombinant luciferase-expressing HIV-1 infecting HOS-CD4/Fusin cells; details: C34 data taken from Chan et al., PNAS 95:15613 (1998); read-out: Viral Infectivity Assay (IC50 in nM); cited from earlier work
[7] = 10 μM; Gonzalez et al. 1996; cited from earlier work

Ac-WRMWDLEIKVYTLLIKNLILESEVQQLKNLVELR-NH2 (C-terminus assumed) [Peptide C34-GCN4]
[Θ]222 value ([1]; listed as C34-GCN4 peptide): −12,400 deg cm^2 dmol^−1 and −12,000 deg cm^2 dmol^−1
inhibition of cell-cell fusion, in words [2]: strong inhibitory potency
IC50 ([2]; read-out: Cell-Cell Fusion Assay (IC50 in nM), CHO cells expressing HXB2 envelope co-cultured with CD4 HeLa cells, 20 hours, 1% DMSO): 4.6 nM and 5 nM
solubility: < 1 µM
IC50 ([3]; read-out: Viral Infectivity Assay (IC50 in nM), HOS cells expressing CD4 and CXCR4, luciferase 48 hours post-infection, 1% DMSO): 16 nM

C34-GCN4 peptide (designed binder)
Cell-Cell Fusion Assay (IC50 in nM) [4]: 5 nM
Viral Infectivity Assay (IC50 in nM) [4]: 16 nM
inhibition of cell-cell fusion, IC50 [4]: 4.6 nM
inhibition of viral infectivity, IC50 [4]: 19 nM

C34: linear C-peptide of HIV-1 gp41 (SEQ ID NO: 2), unstructured in solution [Peptide C34]
[Θ]222 value [1]: −3,800 deg cm^2 dmol^−1
IC50 [5]: 0.6 nM
IC50 [6]: 2.1 nM

GCN4 homodimer
inhibition of cell-cell fusion [4]: > 50 µM
inhibition of viral infectivity [4]: > 50 µM

GCN4 homodimer: covalent homodimer of CGG-GCN4
inhibition of cell-cell fusion, in words [2]: no activity
Cell-Cell Fusion Assay (IC50 in nM) ([2]; CHO cells expressing HXB2 envelope co-cultured with CD4 HeLa cells, 20 hours, 1% DMSO): none
IC50 ([2]; read-out: no inhibitory activity in cell-cell fusion up to stated concentration, highest concentration without measurable inhibition): > 50000 nM
inhibition of viral infectivity, in words [3]: no activity
Viral Infectivity Assay (IC50 in nM) ([3]; HOS cells expressing CD4 and CXCR4, luciferase 48 hours post-infection, 1% DMSO): none
IC50 ([3]; read-out: no inhibitory activity in viral infectivity up to stated concentration, highest concentration without measurable inhibition): > 50000 nM
transition midpoint under temperature denaturation [7]: over 100 °C

From US20030219451A1, “Stable helical C peptides and uses therefor” (priority 2001, published 2003)
